{"source": "patent US20130096170A1", "about": "(priority 2011, published 2013)", "system": "prenatal Cynomolgus monkey brains (frontal cortex)", "key": {"[1]": {"settings": "Group 2, 20 mg/kg im + 20-50 mg/kg/hr, 5 fetal brains examined"}}, "note": "“Also recorded” adds a separate entry of the source."}
{"compound": "CNC1(c2ccccc2Cl)CCCCC1=O", "note": "(centres unmarked) [ketamine]", "values": [{"measurement": "Severity scoring of neuroapoptotic lesions, Activated caspase 3", "setting": "[1]", "value": "3.5 ± 0.7"}, {"measurement": "Severity scoring of neuroapoptotic lesions, HE", "setting": "[1]", "value": "1.9 ± 1.2"}, {"measurement": "Severity scoring of neuroapoptotic lesions, Silver", "setting": "[1]", "value": "2.0 ± 0.8"}, {"measurement": "Severity scoring of neuroapoptotic lesions, TUNEL", "setting": "[1]", "value": "2.9 ± 1.1"}, {"measurement": "neuroapoptotic lesions / damaged and apoptotic cells in fetal frontal cortex", "setting": "Group 2: 20 mg/kg IM+20-50 mg/kg/hr ketamine to pregnant monkeys, H&E, silver, TUNEL, AC3", "value": "abundant neuroapoptotic lesions; also recorded: moderate to large number of damaged and apoptotic cells; also recorded: marked neuroapoptosis and cellular damage with necrosis"}]}
